Assay results from the supplement of paper PMC6045584.
± gives the standard deviation of the averaged measurements.

How the values were obtained:
[1] = compound: Cc1nc(Nc2n[nH]c3c2CN(C(=O)N[C@H](CN(C)C)c2ccccc2)C3(C)C)c2sccc2n1; test: surviving fraction relative to DMSO-only wells; higher = less growth inhibition; conditions: exposure time: 5 days
Outline: (§1)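 Viability values are CellTiter-Glo luminescence readings, given as surviving fraction against the median of DMSO-only wells. The readings were taken after 10 minutes at room temperature, following five days of continuous exposure to inhibitors at 0.5, 1, 5, 10, 50, 100, 500 and 1000 nM that began 24 hours after log-phase tumour cell lines were seeded at 250–500 cells per well in 384-well plates. Every line was screened three times and kept only if replicate Pearson r >0.7 and median Z' >0.3.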

EVEROLIMUS = compound: CO[C@H]1C[C@@H]2CC[C@@H](C)[C@@](O)(O2)C(=O)C(=O)N2CCCC[C@H]2C(=O)O[C@H]([C@H](C)C[C@@H]2CC[C@@H](OCCO)[C@H](OC)C2)CC(=O)[C@H](C)/C=C(\C)[C@@H](O)[C@@H](OC)C(=O)[C@H](C)C[C@H](C)/C=C/C=C/C=C/1C [EVEROLIMUS]; test: as above; conditions: exposure time: 5 days
Outline: as §1

HELA CERVIX
surviving fraction ([1]; 0.5 nM): 1.1 ± 0.061
surviving fraction ([1]; 1 nM): 1.11 ± 0.056
surviving fraction ([1]; 5 nM): 0.936 ± 0.026
surviving fraction ([1]; 10 nM): 0.741 ± 0.02
surviving fraction ([1]; 50 nM): 0.4922 ± 0.0018
surviving fraction ([1]; 100 nM): 0.478 ± 0.0081
surviving fraction ([1]; 500 nM): 0.406 ± 0.016
surviving fraction ([1]; 1000 nM): 0.341 ± 0.026
surviving fraction (EVEROLIMUS; 0.5 nM): 1.04 ± 0.027
surviving fraction (EVEROLIMUS; 1 nM): 1.04 ± 0.014
surviving fraction (EVEROLIMUS; 5 nM): 1.04 ± 0.029
surviving fraction (EVEROLIMUS; 10 nM): 1.036 ± 0.0052
surviving fraction (EVEROLIMUS; 50 nM): 1.15 ± 0.023
surviving fraction (EVEROLIMUS; 100 nM): 1.14 ± 0.058
surviving fraction (EVEROLIMUS; 500 nM): 1.09 ± 0.036
surviving fraction (EVEROLIMUS; 1000 nM): 1.16 ± 0.055

YAMATO SYNOVIAL
surviving fraction ([1]; 0.5 nM): 0.784 ± 0.03
surviving fraction ([1]; 1 nM): 1.19 ± 0.074
surviving fraction ([1]; 5 nM): 0.432 ± 0.036
surviving fraction ([1]; 10 nM): 1.35 ± 0.091
surviving fraction ([1]; 50 nM): 0.354 ± 0.0056
surviving fraction ([1]; 100 nM): 1.42 ± 0.17
surviving fraction ([1]; 500 nM): 0.353 ± 0.024
surviving fraction ([1]; 1000 nM): 1.39 ± 0.074
surviving fraction (EVEROLIMUS; 0.5 nM): 1.07 ± 0.084
surviving fraction (EVEROLIMUS; 1 nM): 1.06 ± 0.074
surviving fraction (EVEROLIMUS; 5 nM): 1.06 ± 0.02
surviving fraction (EVEROLIMUS; 10 nM): 0.633 ± 0.022
surviving fraction (EVEROLIMUS; 50 nM): 0.5 ± 0.021
surviving fraction (EVEROLIMUS; 100 nM): 0.454 ± 0.0076
surviving fraction (EVEROLIMUS; 500 nM): 0.401 ± 0.014
surviving fraction (EVEROLIMUS; 1000 nM): 0.473 ± 0.03

MHM BONE
surviving fraction ([1]; 0.5 nM): 0.953 ± 0.02
surviving fraction ([1]; 1 nM): 0.935 ± 0.016
surviving fraction ([1]; 5 nM): 0.924 ± 0.034
surviving fraction ([1]; 10 nM): 0.906 ± 0.015
surviving fraction ([1]; 50 nM): 0.692 ± 0.03
surviving fraction ([1]; 100 nM): 0.664 ± 0.022
surviving fraction ([1]; 500 nM): 0.559 ± 0.023
surviving fraction ([1]; 1000 nM): 0.535 ± 0.014
surviving fraction (EVEROLIMUS; 0.5 nM): 0.926 ± 0.063
surviving fraction (EVEROLIMUS; 1 nM): 0.864 ± 0.049
surviving fraction (EVEROLIMUS; 5 nM): 0.743 ± 0.057
surviving fraction (EVEROLIMUS; 10 nM): 0.696 ± 0.059
surviving fraction (EVEROLIMUS; 50 nM): 0.664 ± 0.029
surviving fraction (EVEROLIMUS; 100 nM): 0.672 ± 0.019
surviving fraction (EVEROLIMUS; 500 nM): 0.63 ± 0.011
surviving fraction (EVEROLIMUS; 1000 nM): 0.638 ± 0.032

SNU475 LIVER
surviving fraction ([1]; 0.5 nM): 0.974 ± 0.027
surviving fraction ([1]; 1 nM): 0.918 ± 0.067
surviving fraction ([1]; 5 nM): 0.724 ± 0.06
surviving fraction ([1]; 10 nM): 0.633 ± 0.032
surviving fraction ([1]; 50 nM): 0.509 ± 0.0096
surviving fraction ([1]; 100 nM): 0.467 ± 0.024
surviving fraction ([1]; 500 nM): 0.393 ± 0.015
surviving fraction ([1]; 1000 nM): 0.244 ± 0.015
surviving fraction (EVEROLIMUS; 0.5 nM): 0.489 ± 0.032
surviving fraction (EVEROLIMUS; 1 nM): 0.447 ± 0.028
surviving fraction (EVEROLIMUS; 5 nM): 0.41 ± 0.042
surviving fraction (EVEROLIMUS; 10 nM): 0.364 ± 0.018
surviving fraction (EVEROLIMUS; 50 nM): 0.381 ± 0.028
surviving fraction (EVEROLIMUS; 100 nM): 0.35 ± 0.01
surviving fraction (EVEROLIMUS; 500 nM): 0.303 ± 0.0065
surviving fraction (EVEROLIMUS; 1000 nM): 0.343 ± 0.017

HCT15 LARGE INTESTINE
surviving fraction ([1]; 0.5 nM): 0.998 ± 0.043
surviving fraction ([1]; 1 nM): 1.019 ± 0.009
surviving fraction ([1]; 5 nM): 1.04 ± 0.03
surviving fraction ([1]; 10 nM): 1.04 ± 0.011
surviving fraction ([1]; 50 nM): 0.869 ± 0.061
surviving fraction ([1]; 100 nM): 1.02 ± 0.036
surviving fraction ([1]; 500 nM): 0.172 ± 0.013
surviving fraction ([1]; 1000 nM): 0.428 ± 0.023
surviving fraction (EVEROLIMUS; 0.5 nM): 0.803 ± 0.066
surviving fraction (EVEROLIMUS; 1 nM): 0.702 ± 0.066
surviving fraction (EVEROLIMUS; 5 nM): 0.599 ± 0.07
surviving fraction (EVEROLIMUS; 10 nM): 0.511 ± 0.013
surviving fraction (EVEROLIMUS; 50 nM): 0.512 ± 0.055
surviving fraction (EVEROLIMUS; 100 nM): 0.511 ± 0.059
surviving fraction (EVEROLIMUS; 500 nM): 0.476 ± 0.046
surviving fraction (EVEROLIMUS; 1000 nM): 0.542 ± 0.037

DU4475 BREAST
surviving fraction ([1]; 0.5 nM): 0.654 ± 0.12
surviving fraction ([1]; 1 nM): 0.452 ± 0.065
surviving fraction ([1]; 5 nM): 0.138 ± 0.048
surviving fraction ([1]; 10 nM): 0.0743 ± 0.013
surviving fraction ([1]; 50 nM): 0.038 ± 0.0095
surviving fraction ([1]; 100 nM): 0.029 ± 0.0056
surviving fraction ([1]; 500 nM): 0.0257 ± 0.0045
surviving fraction ([1]; 1000 nM): 0.0277 ± 0.006
surviving fraction (EVEROLIMUS; 0.5 nM): 0.429 ± 0.1
surviving fraction (EVEROLIMUS; 1 nM): 0.272 ± 0.054
surviving fraction (EVEROLIMUS; 5 nM): 0.148 ± 0.0015
surviving fraction (EVEROLIMUS; 10 nM): 0.161 ± 0.03
surviving fraction (EVEROLIMUS; 50 nM): 0.108 ± 0.031
surviving fraction (EVEROLIMUS; 100 nM): 0.125 ± 0.03
surviving fraction (EVEROLIMUS; 500 nM): 0.103 ± 0.0061
surviving fraction (EVEROLIMUS; 1000 nM): 0.0877 ± 0.012

SJSA1 BONE
surviving fraction ([1]; 0.5 nM): 0.972 ± 0.02
surviving fraction ([1]; 1 nM): 0.901 ± 0.011
surviving fraction ([1]; 5 nM): 0.747 ± 0.018
surviving fraction ([1]; 10 nM): 0.696 ± 0.057
surviving fraction ([1]; 50 nM): 0.448 ± 0.015
surviving fraction ([1]; 100 nM): 0.393 ± 0.025
surviving fraction ([1]; 500 nM): 0.289 ± 0.007
surviving fraction ([1]; 1000 nM): 0.243 ± 0.0072
surviving fraction (EVEROLIMUS; 0.5 nM): 1.58 ± 0.029
surviving fraction (EVEROLIMUS; 1 nM): 1.72 ± 0.099
surviving fraction (EVEROLIMUS; 5 nM): 1.5 ± 0.24
surviving fraction (EVEROLIMUS; 10 nM): 1.63 ± 0.07
surviving fraction (EVEROLIMUS; 50 nM): 1.38 ± 0.023
surviving fraction (EVEROLIMUS; 100 nM): 1.7 ± 0.048
surviving fraction (EVEROLIMUS; 500 nM): 1.38 ± 0.26
surviving fraction (EVEROLIMUS; 1000 nM): 1.73 ± 0.11

HCC78 LUNG
surviving fraction ([1]; 0.5 nM): 0.721 ± 0.087
surviving fraction ([1]; 1 nM): 0.967 ± 0.1
surviving fraction ([1]; 5 nM): 0.323 ± 0.047
surviving fraction ([1]; 10 nM): 0.454 ± 0.14
surviving fraction ([1]; 50 nM): 0.263 ± 0.027
surviving fraction ([1]; 100 nM): 0.231 ± 0.03
surviving fraction ([1]; 500 nM): 0.203 ± 0.036
surviving fraction ([1]; 1000 nM): 0.21 ± 0.041
surviving fraction (EVEROLIMUS; 0.5 nM): 0.516 ± 0.13
surviving fraction (EVEROLIMUS; 1 nM): 0.674 ± 0.26
surviving fraction (EVEROLIMUS; 5 nM): 0.528 ± 0.11
surviving fraction (EVEROLIMUS; 10 nM): 0.627 ± 0.11
surviving fraction (EVEROLIMUS; 50 nM): 0.621 ± 0.1
surviving fraction (EVEROLIMUS; 100 nM): 0.599 ± 0.18
surviving fraction (EVEROLIMUS; 500 nM): 0.358 ± 0.052
surviving fraction (EVEROLIMUS; 1000 nM): 0.327 ± 0.055

HCC1395 BREAST
surviving fraction ([1]; 0.5 nM): 0.927 ± 0.18
surviving fraction ([1]; 1 nM): 0.984 ± 0.06
surviving fraction ([1]; 5 nM): 1.06 ± 0.013
surviving fraction ([1]; 10 nM): 1.11 ± 0.13
surviving fraction ([1]; 50 nM): 0.964 ± 0.14
surviving fraction ([1]; 100 nM): 1.16 ± 0.26
surviving fraction ([1]; 500 nM): 0.964 ± 0.15
surviving fraction ([1]; 1000 nM): 0.961 ± 0.16
surviving fraction (EVEROLIMUS; 0.5 nM): 1.18 ± 0.041
surviving fraction (EVEROLIMUS; 1 nM): 1.08 ± 0.03
surviving fraction (EVEROLIMUS; 5 nM): 1.19 ± 0.025
surviving fraction (EVEROLIMUS; 10 nM): 0.998 ± 0.05
surviving fraction (EVEROLIMUS; 50 nM): 1.02 ± 0.099
surviving fraction (EVEROLIMUS; 100 nM): 1 ± 0.041
surviving fraction (EVEROLIMUS; 500 nM): 0.974 ± 0.026
surviving fraction (EVEROLIMUS; 1000 nM): 0.951 ± 0.056

NCIH441 LUNG
surviving fraction ([1]; 0.5 nM): 0.955 ± 0.014
surviving fraction ([1]; 1 nM): 0.938 ± 0.1
surviving fraction ([1]; 5 nM): 0.637 ± 0.057
surviving fraction ([1]; 10 nM): 0.632 ± 0.0076
surviving fraction ([1]; 50 nM): 0.463 ± 0.026
surviving fraction ([1]; 100 nM): 0.452 ± 0.04
surviving fraction ([1]; 500 nM): 0.379 ± 0.048
surviving fraction ([1]; 1000 nM): 0.329 ± 0.018
surviving fraction (EVEROLIMUS; 0.5 nM): 1.15 ± 0.031
surviving fraction (EVEROLIMUS; 1 nM): 1.08 ± 0.098
surviving fraction (EVEROLIMUS; 5 nM): 1.183 ± 0.0021
surviving fraction (EVEROLIMUS; 10 nM): 1.04 ± 0.049
surviving fraction (EVEROLIMUS; 50 nM): 0.864 ± 0.097
surviving fraction (EVEROLIMUS; 100 nM): 1.03 ± 0.082
surviving fraction (EVEROLIMUS; 500 nM): 0.933 ± 0.056
surviving fraction (EVEROLIMUS; 1000 nM): 0.876 ± 0.076
